From PMC7311426, “An amphipathic peptide with antibiotic activity against multidrug-resistant Gram-negative bacteria” (Nature Communications, 2020)
In brackets after ≈: the same amount, converted by molar mass.

Assays:
[1] = system: P. aeruginosa; assay: microbe, parasite or virus in culture; details: Pseudomonas aeruginosa, ATCC27853, read-out: MIC against P. aeruginosa (ATCC 27853), as stated for the pneumonia model
How it was run: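 Broth microdilution in MHB, 2-fold 12-point series from 128 or 64 down to 0.06 or 0.03 μg mL^−1, 5 × 10^5 CFU mL^−1. Extra runs in CAMHB per CLSI and in MHB with 1% agarose; n ≥ 6.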

[2] = system: P. aeruginosa ATCC 27853; assay: Murine pneumonia model, aerosolized treatment; type: in vivo, P. aeruginosa in CD1 mice; details: lung burden; Tobramycin 4.2mg/mL 20 min; group 9
Experimental: Peritonitis and UTI murine models were performed at the Department of Microbiology & Infection Control, Statens Serum Institute, Copenhagen, Denmark, under approval by the National Committee of Animal Ethics, Denmark, and adhered to the standards of EU Directive 2010/63/EU. The mouse pneumonia model was performed by Evotec Ltd, United Kingdom, under UK Home Office Licenses and with local ethical committee clearance. All animal studies were contracted by Adenium Biotech ApS.
Peptides were prepared in Ringer’s acetate pH 6.0 (vehicle) at 34 mg mL^−1. Comparator antibiotics included meropenem (Meronem®, AstraZeneca), polymyxin B sulfate (Sigma) and tobramycin (Novartis).
P. aeruginosa pneumonia in vivo model was prepared as follows: male CD1 mice were immunosuppressed with cyclophosphamide 200 mg kg^−1 on day −4 and 150 mg kg^−1 on day −1. […] Mouse weights were recorded once-daily following infection to ensure animals remained within ethical limits and to monitor efficacy of treatment. All mice remaining in the study at 34 h post infection were euthanized and the burden of P. aeruginosa in the lungs was determined. […] The lung homogenates were diluted appropriately then quantitatively cultured on to Pseudomonas-selective agar and incubated at 37 °C for 24 h before the number of colonies was counted. […]

Question: `NC[C@H]1O[C@H](O[C@H]2[C@H](O)[C@@H](O[C@H]3O[C@H](CO)[C@@H](O)[C@H](N)[C@H]3O)[C@H](N)C[C@@H]2N)[C@H](N)C[C@@H]1O` [tobramycin] was tested. Which MIC [1] did it give?
Answer: 0.5 to 2 µg/mL (≈ 1.07 to 4.28 µM)

Question: What about the “Log Group Geometric mean (CFU/g)” value [2] of the same molecule?
Answer: 2.68 CFU/g
